Measured values reported in paper PMC4469479 (Nature, 2015).

What was measured:
[1] = molecular target: dDATmfc sub^B (Drosophila melanogaster, UniProt Q7K4Y6, D121G/DEL162-202/DEL602-606/INS607VPRG/L415A/S426M/V74A); type: binding
[2] = molecular target: T1, dDATmfc (Drosophila melanogaster, UniProt Q7K4Y6, DEL162-202/DEL602-606/INS607VPRG/L415A/V74A); type: binding
[3] = molecular target: T1, dDATmfc; conditions: HEK293S cells; 14C-DA 0.3–60 μM; s.e.m.

Q: With `NCCc1ccc(Cl)c(Cl)c1` [DCP, 3,4-dichlorophenethylamine] as the molecule, how does the Ki [1] read?
A: The Ki was 0.267 ± 0.02 µM.

Q: Which Ki [2] does the source give for `COC(=O)[C@H]1[C@@H](OC(=O)c2ccccc2)C[C@@H]2CC[C@H]1N2C` [cocaine] here?
A: Its Ki is 33 ± 3 µM.

Q: `NCCc1ccc(O)c(O)c1` [dopamine] was tested. Which “Vmax of DA transport by dDATmfc” value [3] did it give?
A: Its value is 2.4 ± 0.2 pmol/min/10^6 cells.
